Laboratory results as given in patent US20240050434A1, “HORMAD1 THERAPEUTICS” (Royal Cancer Hospital, priority 2020, published 2024).
Entries after “also recorded” stand apart in the source; their conditions may differ.

Columns and labels:
[1] = system: HORMAD1-positive and HORMAD1-negative triple negative breast cancer patient-derived organoids; test: Patient-derived TNBC organoids, viability by cell titre glo; assay type: cell-based, human; details: 14 days
From the text: RPE1 cells were reverse transfected with BUB1 or control siRNA particles for 3 days. Cell lysates were collected, and analysed by western blotting using anti-BUB1 and anti-β-ACTIN antibodies. B. Graph indicating reduced cellular survival in HORMAD1 expressing RPE1 cells depleted of BUB1 using siRNA. RPE1 cells expressing a doxycycline-inducible HORMAD1 expression construct were exposed to doxycycline or vehicle, and were reverse transfected with BUB1 or control siRNA particles. 5 days post transfection, cellular viability was estimated using cell titer glo reagent and surviving fractions were calculated relative to DMSO treated cells. […] Statistical significance estimated using a one-way ANOVA with Sidak's correction. C. […] 7-10 days post doxycycline induction, cells were fixed, stained with SRB, and cellular viability was estimated using SRB absorbance readings. […] Cells were fixed, stained with SRB, and cellular viability was estimated using SRB absorbance readings. […] Cells were imaged every 4 hours, and confluence was continually measured using incucyte software. […] Cellular viability was estimated using cell titer glo reagent and surviving fractions were calculated relative to DMSO treated cells. […]
A further experiment was conducted to test the efficacy of BUB1 inhibitors to selectively kill HORMAD1-positive human tumours. […] Surviving fractions were calculated (normalised to vehicle treated cells). […]

[2] = system: RPE1 cells expressing a doxycycline-inducible HORMAD1 construct; test: Clonogenic survival assay (SRB) in RPE1 cells with doxycycline-inducible HORMAD1; assay type: cell-based; details: for clonogenic survival / sensitivity of HORMAD1 expressing versus HORMAD1-negative RPE1 cells: increasing doses, 7-14 days, normalised to vehicle
Procedure: Cell confluence was analysed every 6 hours for 10 days, using incucyte software. Data are from 3 biological replicates and analysed using a two-way ANOVA. […] RPE1 cells expressing a doxycycline-inducible HORMAD1 expression construct were exposed to doxycycline or vehicle (H2O) and were exposed to 20 nM of the Aurora B inhibitor, AZD1152-HQPA. Cell confluence was analysed every 6 hours for 10 days, using incucyte software. Data are from 3 biological replicates and analysed using a two-way ANOVA. […] 7-10 days post drugging, cells were fixed, stained with SRB, and colonies were counted using Cell Profiler. […] 10 days post drugging, cells were fixed, stained with SRB, and colonies were counted using Cell Profiler. […] RPE1 cells expressing a doxycycline-inducible HORMAD1 expression construct were exposed to doxycycline or vehicle (H2O) and to increasing doses of the Aurora B inhibitor, AZD1152-HQPA. 7-10 days post drugging, cells were fixed, stained with SRB, and colonies were counted using Cell Profiler. […] SUM159 cells expressing a doxycycline-inducible HORMAD1 expression construct were exposed to doxycycline or vehicle (H2O) and to increasing doses of the Aurora B inhibitor, AZD1152-HQPA. 10 days post drugging, cells were fixed, stained with SRB, and colonies were counted using Cell Profiler.
RPE1 cells were reverse transfected with BUB1 or control siRNA particles for 3 days. Cell lysates were collected, and analysed by western blotting using anti-BUB1 and anti-β-ACTIN antibodies. […] RPE1 cells expressing a doxycycline-inducible HORMAD1 expression construct were exposed to doxycycline or vehicle, and were reverse transfected with BUB1 or control siRNA particles. 5 days post transfection, cellular viability was estimated using cell titer glo reagent and surviving fractions were calculated relative to DMSO treated cells. […] Statistical significance estimated using a one-way ANOVA with Sidak's correction. C. Western blot illustrating expression of HORMAD1 in wild-type RPE1 cells and RPE1 cells depleted of BUB1 using CRISPR. WT and BUB1 depleted RPE1 cells expressing a doxycycline-inducible HORMAD1 expression construct, were exposed to doxycycline or vehicle for 3 days. Cell lysates were collected, and analysed by SDS-PAGE and western blotting using anti-HORMAD1, anti-H3 and anti-BUB1 antibodies. […] WT and BUB1 depleted RPE1 cells expressing a doxycycline-inducible HORMAD1 expression construct were exposed to doxycycline or vehicle. 7-10 days post doxycycline induction, cells were fixed, stained with SRB, and cellular viability was estimated using SRB absorbance readings. […] Statistical significance estimated using a one-way ANOVA with Sidak's correction. […] RPE1 expressing a doxycycline-inducible HORMAD1 expression construct, were exposed to doxycycline or vehicle. […] Cells were fixed, stained with SRB, and cellular viability was estimated using SRB absorbance readings. […] Cells were imaged every 4 hours, and confluence was continually measured using incucyte software. Growth curves were plotted, based on confluence. Data represent 3 biological replicas. […] Patient-derived organoids models were grown in culture and cell lysates collected and analysed using SDS-PAGE and western blotting using anti-HORMAD1 and anti-β-ACTIN antibodies. […] Cellular viability was estimated using cell titer glo reagent and surviving fractions were calculated relative to DMSO treated cells. […] Left, dose response curves for each organoid.

| Compound | growth inhibition of HORMAD1 expressing versus HORMAD1-negative patient-derived organoids (AURORA B inhibitor) ([1]; BTBC673PO versus WHIM21XO, BXO88XO, BXO78XO) | clonogenic survival / sensitivity of HORMAD1 expressing versus HORMAD1-negative RPE1 cells [2] | growth inhibition of HORMAD1-expressing versus HORMAD1-negative patient-derived organoids (BUB1 inhibitor) ([1]; 3 HORMAD1-positive and 5 HORMAD1-negative models) | reduction of clonogenic capacity of RPE1 cells in presence of HORMAD1 expression compared to RPE1 cells not expressing HORMAD1 ([2]; 10 days post drugging) [%] |
| --- | --- | --- | --- | --- |
| CCN(CCO)CCCOc1ccc2c(Nc3cc(CC(=O)Nc4cccc(F)c4)[nH]n3)ncnc2c1 [AZD1152-HQPA] | growth inhibition was more effective | more effectively inhibited; also recorded: reduced clonogenic survival; also recorded: increased Aurora B inhibitor sensitivity | – | – |
| COc1cnccc1Nc1nc(-c2nn(Cc3c(F)cc(OCCO)cc3F)c3ccccc23)ncc1OC [BAY-1816032] | – | increased cellular sensitivity | more effectively inhibited; also recorded: increased BUB1 inhibitor sensitivity | 60 |
